By IC50 is commonly meant the point on the concentration scale where inhibition reaches its midpoint.

SMILES strings stand for the structures.

The source of these data is US12331054B2, “Perk inhibiting imidazolopyrazine compounds” (HiberCell, Inc., priority 2019, dated 2025).

Test [1] addresses Recombinant human EIF2AK3 (PERK) catalytic domain (amino acids 536-1116) (Homo sapiens (Human), UniProt Q9NZJ5). In words: PERK In Vitro Activity Assay (isolated), TR-FRET kinase assay. The settings on record: isolated PERK enzyme, 1.5 μM ATP, read-out: Biochemical IC50. In short, it runs like this: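 Recombinant PERK catalytic domain was incubated with 100–200 nM GFP-eIF2a substrate in 50 mM HEPES pH 7.5, 10 mM MgCl2, 1.0 mM EGTA and 0.01% Brij-35 for 45 min at room temperature. After a 10 mM EDTA stop, 2 nM Tb-anti-phospho-eIF2a was added for 90 min, and IC50 was fitted from TR-FRET ratios by 4-parameter logistic regression.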

The test system of test [2] is eIF2α in HEK293-EGFP-eIF2α cells. In words: PERK Cellular Assay (HEK293-EGFP-eIF2α cells, tunicamycin-induced ER stress, TR-FRET). The settings on record: tunicamycin 2 hours. The class given is cell-based. In short, it runs like this:
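Cells pre-incubated with inhibitor 30 min at 37 °C, then ER stress induced with […] tunicamycin for 2 h. TR-FRET read on lysates; ratio normalized to DMSO control as percent inhibition over a 10-point, 3-fold dilution series; IC50 from 4-parameter logistic fit.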
(TR-FRET usually uses a lanthanide donor and a delayed reading to cut background.)

Recombinant human EIF2AK3 (PERK) catalytic domain (amino acids 536-1116), sequence (Q9NZJ5 536-1116): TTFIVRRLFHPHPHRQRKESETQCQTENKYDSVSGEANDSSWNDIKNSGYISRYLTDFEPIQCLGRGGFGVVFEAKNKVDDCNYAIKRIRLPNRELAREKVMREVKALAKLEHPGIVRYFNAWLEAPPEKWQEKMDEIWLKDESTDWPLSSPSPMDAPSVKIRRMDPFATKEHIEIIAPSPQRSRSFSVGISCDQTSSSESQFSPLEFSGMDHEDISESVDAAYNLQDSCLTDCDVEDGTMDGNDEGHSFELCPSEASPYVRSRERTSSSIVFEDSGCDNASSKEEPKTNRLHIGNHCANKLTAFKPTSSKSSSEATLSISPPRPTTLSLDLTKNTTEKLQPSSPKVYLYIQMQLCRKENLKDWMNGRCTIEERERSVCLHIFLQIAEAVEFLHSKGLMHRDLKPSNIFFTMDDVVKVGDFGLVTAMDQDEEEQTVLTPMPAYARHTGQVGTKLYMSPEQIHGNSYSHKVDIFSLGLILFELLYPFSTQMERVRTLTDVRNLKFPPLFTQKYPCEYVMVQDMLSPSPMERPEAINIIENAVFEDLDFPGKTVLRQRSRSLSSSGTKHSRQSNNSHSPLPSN

For `[2H]C([2H])([2H])c1nc(-c2ccc(NC(=O)C(O)c3cccc(C(F)(F)F)c3)c(F)c2F)c2c(N)nc(C)cn12` (stereo not shown) [Example 151, N-[4-[8-amino-6-methyl-3-(trideuteriomethyl)imidazo[1,5-a]pyrazin-1-yl]-2,3-difluoro-phenyl]-2-hydroxy-2-[3-(trifluoromethyl)phenyl]acetamide], the values for the IC50 in test [1] and in test [2] were 51 to 100 nM and 251 to 500 nM, respectively.

As for `[2H]C([2H])([2H])c1nc(-c2ccc(NC(=O)C(O)c3cccc(C(F)(F)F)c3)nc2C)c2c(N)ncc(C)n12` (stereo not shown) [Example 174, N-[5-[8-amino-5-methyl-3-(trideuteriomethyl)imidazo[1,5-a]pyrazin-1-yl]-6-methyl-2-pyridyl]-2-hydroxy-2-[3-(trifluoromethyl)phenyl]acetamide], the IC50 lay in the range of 1 to 25 nM in test [1] and 26 to 50 nM in test [2].

On to `[2H]C([2H])([2H])c1nc(-c2ccc(NC(=O)C(O)c3cc(F)cc(C(F)(F)F)c3)cc2C)c2c(N)ncc(C)n12` (stereo not shown) [Example 54, N-[4-[8-amino-5-methyl-3-(trideuteriomethyl)imidazo[1,5-a]pyrazin-1-yl]-3-methyl-phenyl]-2-[3-fluoro-5-(trifluoromethyl)phenyl]-2-hydroxy-acetamide], for which the IC50 in test [1] and in test [2] was 1 to 25 nM throughout.

Regarding `Cc1cc(NC(=O)C(O)c2cc(F)cc(C(F)(F)F)c2)ccc1-c1nc(C)n2c(C)cnc(N)c12` (stereo not shown) [Example 59, N-(4-(8-amino-3,5-dimethylimidazo [1,5-a]pyrazin-1-yl)-3-methylphenyl)-2-(3-fluoro-5-(trifluoromethyl)phenyl)-2-hydroxyacetamide], the IC50 fell in the range of 1 to 25 nM in test [1] and 101 to 250 nM in test [2].

With `[2H]C([2H])([2H])c1nc(-c2ccc(NC(=O)C(O)c3cc(F)cc(C(F)(F)F)c3)cc2C)c2c(N)ncc(C)n12` (stereo not shown) [Example 55, N-[4-[8-amino-5-methyl-3-(trideuteriomethyl)imidazo[1,5-a]pyrazin-1-yl]-3-methyl-phenyl]-2-[3-fluoro-5-(trifluoromethyl)phenyl]-2-hydroxy-acetamide], the 50% inhibitory concentration (IC50) in test [1] lay in the range of 1 to 25 nM; in test [2], 101 to 250 nM.

With `[2H]C([2H])([2H])c1nc(-c2ccc(NC(=O)C(O)c3cccc(F)c3)nc2C)c2c(N)ncc(C)n12` (stereo not shown) [Example 173, N-[5-[8-amino-5-methyl-3-(trideuteriomethyl)imidazo[1,5-a]pyrazin-1-yl]-6-methyl-2-pyridyl]-2-(3-fluorophenyl)-2-hydroxy-acetamide], the IC50 was in the range of 1 to 25 nM in test [1] and 26 to 50 nM in test [2].

Consider `Cc1cc(NC(=O)C(O)c2cccc(F)c2)ccc1-c1nc(C)n2c(C)cnc(N)c12` (stereo not shown) [Example 9, N-(4-(8-amino-3,5-dimethylimidazo[1,5-a]pyrazin-1-yl)-3-methylphenyl)-2-(3-fluorophenyl)-2-hydroxyacetamide], for which the IC50 in test [1] was in the range of 51 to 100 nM; in test [2], 251 to 500 nM.

In the case of `Cc1cc(NC(=O)C(O)c2cccc(F)c2)ccc1-c1nc(C)n2ccnc(N)c12` (stereo not shown) [Example 1, N-(4-(8-amino-3-methylimidazo[1,5-a]pyrazin-1-yl)-3-methylphenyl)-2-(3-fluorophenyl)-2-hydroxyacetamide], the results for the IC50 in test [1] and in test [2] were 1 to 25 nM and 26 to 50 nM, respectively.

On to `[2H]C([2H])([2H])c1nc(-c2ccc(NC(=O)C(O)c3cccc(C(F)(F)F)c3)nc2C)c2c(N)nc(C)cn12` (stereo not shown) [Example 177, N-[5-[8-amino-6-methyl-3-(trideuteriomethyl)imidazo[1,5-a]pyrazin-1-yl]-6-methyl-2-pyridyl]-2-hydroxy-2-[3-(trifluoromethyl)phenyl]acetamide], for which the IC50 lay in the range of 101 to 250 nM in test [1] and 501 to 1000 nM in test [2].

For `[2H]C([2H])([2H])c1nc(-c2ccc(NC(=O)C(O)c3cc(F)cc(F)c3)c(F)c2F)c2c(N)ncc(C)n12` (stereo not shown) [Example 154, N-[4-[8-amino-5-methyl-3-(trideuteriomethyl)imidazo[1,5-a]pyrazin-1-yl]-2,3-difluoro-phenyl]-2-(3,5-difluorophenyl)-2-hydroxy-acetamide], the IC50 in test [1] and in test [2] was 1 to 25 nM throughout.

Take `[2H]C([2H])([2H])c1nc(-c2ccc(NC(=O)C(O)c3cccc(F)c3)cc2C)c2c(N)nc(C)cn12` (stereo not shown) [Example 5, N-(4-(8-amino-6-methyl-3-(trideuteriomethyl)imidazo[1,5-a]pyrazin-1-yl)-3-methylphenyl)-2-(3-fluorophenyl)-2-hydroxyacetamide]: the IC50 in test [1] and in test [2] (2 h) was 1 to 25 nM throughout.

With `Cc1cnc(N)c2c(-c3ccc(NC(=O)C(O)c4cccc(F)c4)cc3)nc(C)n12` (stereo not shown) [Example 68, N-(4-(8-amino-3,5-dimethylimidazo [1,5-a]pyrazin-1-yl)phenyl)-2-(3-fluorophenyl)-2-hydroxyacetamide], the figures for the IC50 in test [1] and in test [2] were 1 to 25 nM and 101 to 250 nM, respectively.

With `[2H]C([2H])([2H])c1nc(-c2ccc(NC(=O)C(O)c3cccc(Cl)c3)cc2C)c2c(N)nc(C)cn12` (stereo not shown) [Example 34, N-[4-[8-amino-6-methyl-3-(trideuteriomethyl)imidazo[1,5-a]pyrazin-1-yl]-3-methyl-phenyl]-2-(3-chlorophenyl)-2-hydroxy-acetamide], the IC50 was in the range of 1 to 25 nM in test [1] and 26 to 50 nM in test [2].

Consider `Cc1cnc(N)c2c(-c3ccc(NC(=O)C(O)c4cccc(C(F)(F)F)c4)cc3F)nc(C)n12` (stereo not shown) [Example 92, N-(4-(8-amino-3,5-dimethylimidazo [1,5-a]pyrazin-1-yl)-3-fluoro-phenyl)-2-hydroxy-2-(3-(trifluoromethyl)phenyl)acetamide], for which the IC50 in test [1] and in test [2] was 1 to 25 nM throughout.

For `Cc1cc(NC(=O)C(O)c2cccc(F)c2)c(F)cc1-c1nc(C)n2c(C)cnc(N)c12` (stereo not shown) [Example 65, N-(4-(8-amino-3,5-dimethylimidazo [1,5-a]pyrazin-1-yl)-2-fluoro-5-methylphenyl)-2-(3-fluorophenyl)-2-hydroxy-acetamide], the IC50 in test [1] and in test [2] was 1 to 25 nM throughout.

On to `[2H]C([2H])([2H])c1nc(-c2ccc(NC(=O)C(O)c3cc(F)cc(C(F)(F)F)c3)cc2F)c2c(N)ncc(C(F)(F)F)n12` (stereo not shown) [Example 112, N-[4-[8-amino-3-(trideuteriomethyl)-5-(trifluoromethyl)imidazo[1,5-a]pyrazin-1-yl]-3-fluoro-phenyl]-2-[3-fluoro-5-(trifluoromethyl)phenyl]-2-hydroxy-acetamide], for which the IC50 in test [1] and in test [2] was 1 to 25 nM throughout.

Turning to `[2H]C([2H])([2H])c1nc(-c2ccc(NC(=O)C(O)c3cc(F)cc(F)c3)cc2F)c2c(N)nc(C)cn12` (stereo not shown) [Example 103, N-[4-[8-amino-6-methyl-3-(trideuteriomethyl)imidazo[1,5-a]pyrazin-1-yl]-3-fluoro-phenyl]-2-(3,5-difluoro-phenyl)-2-hydroxy-acetamide], the IC50 in test [1] lay in the range of 1 to 25 nM; in test [2], 251 to 500 nM.

Regarding `[2H]C([2H])([2H])c1nc(-c2ccc(NC(=O)C(O)c3cc(F)cc(F)c3)c(F)c2F)c2c(N)ncc(C)n12` (stereo not shown) [Example 155, N-[4-[8-amino-5-methyl-3-(trideuteriomethyl)imidazo[1,5-a]pyrazin-1-yl]-2,3-difluoro-phenyl]-2-(3,5-difluorophenyl)-2-hydroxy-acetamide], the IC50 in test [1] lay in the range of 1 to 25 nM; in test [2], 51 to 100 nM.

Turning to `[2H]C([2H])([2H])c1nc(-c2ccc(NC(=O)C(O)c3cc(F)cc(C(F)(F)F)c3)cc2C)c2c(N)ncc(C(F)(F)F)n12` (stereo not shown) [Example 60, N-[4-[8-amino-3-(trideuteriomethyl)-5-(trifluoromethyl)imidazo[1,5-a]pyrazin-1-yl]-3-methyl-phenyl]-2-[3-fluoro-5-(trifluoromethyl)phenyl]-2-hydroxy-acetamide], the IC50 fell in the range of 1 to 25 nM in test [1] and 26 to 50 nM in test [2].

As for `[2H]C([2H])([2H])c1nc(-c2ccc(NC(=O)C(O)c3cccc(Cl)c3)cc2F)c2c(N)ncc(C(F)(F)F)n12` (stereo not shown) [Example 82, N-[4-[8-amino-3-(trideuteriomethyl)-5-(trifluoromethyl)imidazo[1,5-a]pyrazin-1-yl]-3-fluoro-phenyl]-2-(3-chlorophenyl)-2-hydroxy-acetamide], the IC50 in test [1] and in test [2] was 1 to 25 nM each time.

On to `[2H]C([2H])([2H])c1nc(-c2ccc(NC(=O)C(O)c3cccc(C(F)(F)F)c3)cc2F)c2c(N)ncc(C)n12` (stereo not shown) [Example 95, N-[4-[8-amino-5-methyl-3-(trideuteriomethyl)imidazo[1,5-a]pyrazin-1-yl]-3-fluoro-phenyl]-2-hydroxy-2-[3-(trifluoromethyl)phenyl]acetamide], for which the 50% inhibitory concentration (IC50) in test [1] lay within 1 to 25 nM; in test [2] it was 51 to 100 nM.

As to `[2H]C([2H])([2H])c1nc(-c2ccc(NC(=O)C(O)c3cccc(C)c3)cc2F)c2c(N)ncc(C)n12` (stereo not shown) [Example 90, N-[4-[8-amino-5-methyl-3-(trideuteriomethyl)imidazo[1,5-a]pyrazin-1-yl]-3-fluoro-phenyl]-2-hydroxy-2-(m-tolyl)acetamide], the IC50 was 1 to 25 nM in test [1] and 26 to 50 nM in test [2] (2 h).

Take `Cc1cc(NC(=O)C(O)c2cccc(Cl)c2)ccc1-c1nc(C)n2c(C)cnc(N)c12` (stereo not shown) [Example 39, N-(4-(8-amino-3,5-dimethylimidazo [1,5-a]pyrazin-1-yl)-3-methyl-phenyl)-2-(3-chlorophenyl)-2-hydroxyacetamide]: the IC50 lay in the range of 1 to 25 nM in test [1] and 101 to 250 nM in test [2].
